This is an account of results in PubChem BioAssay AID2060504 (Molecular Pharmacology Branch, DTP, NCI, 2025).

“And” between values parts separate entries of the source, which are not always exact repeats. Equal values may be shown once.

In the test the test system is 636577-100-R-J1-PDC complex spheroid viability. As to the kind of experiment: Anticancer human tumor 636577-100-R-J1-PDC patient-derived endometrial adenocarcinoma cell line growth inhibition [GQUAD]. To be noted: for viability, T/C: stronger effect = lower value. The text has this:
DNA G-quadruplex Stabilizer Agents in Combinations in Complex Spheroids
A high-throughput screen of multi-cell type tumor spheroids was designed to identify active combinations of DNA G-quadruplex stabilizer agents and targeted small molecules. Complex spheroids include a stromal component modeled by human endothelial cells (HUVEC) and fibroblasts modeled by human mesenchymal stem cells (MSCs). The concentration ranges selected for each drug and investigational agent were based upon clinically achievable concentrations if the clinical Cmax of the agent was known.
Compounds. The drugs and investigational agents: pidnarulex (CX-5461; NSC782164), APTO-253 (NSC789042), BRACO-19 (NSC847499), peposertib (NSC802822), ceralasertib (NSC780249), elimusertib (NSC800525), camonsertib (NSC841442), AZD-1390 (NSC803789), olaparib (NSC753686), talazoparib (NSC767125), ART-558 (NSC835418), sotorasib (NSC818433), MRTX-1133 (NSC836407), SN-38 (NSC673596), topotecan (NSC609699), etoposide (NSC141540), doxorubicin (NSC123127), gemcitabine (NSC613327), 5-fluorouracil (NSC19893), paclitaxel (NSC125973), vemurafenib (NSC761431), panobinostat (NSC761190), R-306465 (JNJ-16241199; NSC773264), adavosertib (NSC754352), TP-3654 (NSC805149), carboplatin (NSC241240), KSQ-4279 (NSC840948), and staurosporine (NSC755774) were obtained from the National Cancer Institute (NCI) Developmental Therapeutics Program Chemical Repository (34). The FDA-approved anticancer drug set is available from the NCI Developmental Therapeutics Program. […] The stock solutions were prepared in dimethyl sulfoxide (DMSO, Sigma-Aldrich, St. Louis, MO, cat. D2650) at 800-fold the tested concentration and stored at -70 degrees C prior to their use. All drugs and investigational agents were tested over a range starting from a high concentration at or near the clinical Cmax and decreasing in half-log increments. If the clinical Cmax for an agent had not been determined, the highest concentration tested was 10 microM.
2.3 Cell Culture. All cells were maintained in an incubator at 37 degrees C and 5% CO2 with 95% humidity. The PDC lines were cultured according to standard operating procedures established by the NCI PDMR. All PDCs were thawed and cultured in Matrigel-coated flasks prepared with a working solution of 1X Ham's F-12 nutrient mix, without supplementation (Invitrogen, cat. 11765054), 100 U/mL penicillin-streptomycin (Invitrogen, cat. 15140122), and 2.5% Matrigel (Corning Inc., cat. 354248) for the first three passages. The 857933-349-R-J2-PDC line was cultured in 6C/Colon 1B media, which includes advanced DMEM/F-12 (Thermo Fisher Scientific, cat. 12634028), 10 mM HEPES (Thermo Fisher Scientific, cat. 15630080), 1X GlutaMAX supplement (Thermo Fisher Scientific, cat. 35050061), 0.1 mg/mL primocin (InvivoGen, cat. ant-pm-2), 10% defined fetal bovine serum, heat inactivated (HyClone Laboratories Inc., cat. SH30070.03HI), 50% L-WRN conditioned media (ATCC, cat. CRL-3276), 1.25 mM N-Acetyl-L-cysteine (Sigma-Aldrich, cat. A9165), 10 mM nicotinamide (Sigma-Aldrich, cat. N0636), 1X B-27 supplement (Thermo Fisher Scientific, cat. 17504044), 1X N-2 supplement (Thermo Fisher Scientific, cat. 17502048), 10 microM Y-27632 dihydrochloride (Tocris Bioscience, cat. 1254), and 50 ng/mL human EGF recombinant protein (Thermo Fisher Scientific, cat. PHG0311). The 485176-168-R4-J1-PDC line was cultured in Panc media, which includes all 6C/Colon 1B media components plus 100 ng/mL human FGF-10 (Thermo Fisher Scientific, cat. 100-26), 500 nM SB-431542 (Selleckchem, cat. S1067), and gastrin (Tocris, cat. 3006).
[…]
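Also: viability read after seven days of drug exposure.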
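For viability, T/C in this document: luminescence signal used as a proxy for viable cells; 100% = DMSO vehicle control wells.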

Regarding `Cc1[nH]c2ccc(F)cc2c1-c1nc2c3cccnc3c3ncccc3c2[nH]1`, the viability, T/C is, setting by setting: (compound 1 µM) 86.1% [middle of 9 runs]; (compound 3.16 µM) 38.6% [middle of 9 runs]. Further, the IC50 is, setting by setting: (compound alone, run of 03/18/2024) > 10000 nM and 3070 nM and 3210 nM; (compound alone, run of 03/26/2024) 2.16 µM [middle of 4 runs].

In the case of `C=CCn1c(=O)c2cnc(Nc3ccc(N4CCN(C)CC4)cc3)nc2n1-c1cccc(C(C)(C)O)n1`, the viability, T/C by setting is: (compound 0.0316 µM) 85% and 95.4% and 95.7%; (compound 0.1 µM) 83.5% and 87.5% and 102%; (compound 0.316 µM) 82.6% and 74.1% and 110%; (compound 1 µM) 39.1% and 30.6% and 46.6%; (compound 3.16 µM) 16.7% and 15% and 16.4%; (compound 10 µM) 11.8% and 9.58% and 9.6%. Moreover, the IC50 (curve of compound) is 749 nM and 598 nM and 932 nM.

As for `Cn1ncnc1[C@H]1c2n[nH]c(=O)c3cc(F)cc(c23)N[C@@H]1c1ccc(F)cc1` + CN(C)c1ccc(Nc2c3ccc(NC(=O)CCN4CCCC4)cc3nc3cc(NC(=O)CCN4CCCC4)ccc23)cc1, the IC50 was 42.7 nM (curve of first compound, second compound 0.0316 µM); 24.6 nM (curve of first compound, second compound 0.1 µM); 34.6 nM (curve of first compound, second compound 0.316 µM); 45 nM (curve of first compound, second compound 1 µM); under 0.999 nM (curve of first compound, second compound 3.16 µM); under 0.999 nM (curve of first compound, second compound 10 µM). The viability, T/C runs as follows: (second compound 0.0316 µM, first compound 0.000999 µM) 95.1%; (second compound 0.0316 µM, first compound 0.00316 µM) 78.8%; (second compound 0.0316 µM, first compound 0.00999 µM) 84.6%; (second compound 0.0316 µM, first compound 0.0316 µM) 50.4%; (second compound 0.0316 µM, first compound 0.0999 µM) 42.2%; (second compound 0.0316 µM, first compound 0.316 µM) 29%. Also, the viability, T/C runs as follows: (second compound 0.1 µM, first compound 0.000999 µM) 102%; (second compound 0.1 µM, first compound 0.00316 µM) 73%; (second compound 0.1 µM, first compound 0.00999 µM) 56.1%; (second compound 0.1 µM, first compound 0.0316 µM) 51.4%; (second compound 0.1 µM, first compound 0.0999 µM) 46.7%; (second compound 0.1 µM, first compound 0.316 µM) 23%. In addition, the viability, T/C was 81.9% (second compound 0.316 µM, first compound 0.000999 µM); 63.7% (second compound 0.316 µM, first compound 0.00316 µM); 59.3% (second compound 0.316 µM, first compound 0.00999 µM); 49.7% (second compound 0.316 µM, first compound 0.0316 µM); 48.6% (second compound 0.316 µM, first compound 0.0999 µM); 37.8% (second compound 0.316 µM, first compound 0.316 µM). Besides, the viability, T/C (second compound 1 µM, first compound 0.000999 µM) was 63.2%; the viability, T/C (second compound 1 µM, first compound 0.00316 µM) is 63.6%; the viability, T/C (second compound 1 µM, first compound 0.00999 µM) is 61.2%; the viability, T/C (second compound 1 µM, first compound 0.0316 µM) is 52.1%; the viability, T/C (second compound 1 µM, first compound 0.0999 µM) was 40.2%; the viability, T/C (second compound 1 µM, first compound 0.316 µM) is 38.2%. The viability, T/C by setting is: (second compound 3.16 µM, first compound 0.000999 µM) 42.7%; (second compound 3.16 µM, first compound 0.00316 µM) 41.5%; (second compound 3.16 µM, first compound 0.00999 µM) 33.8%; (second compound 3.16 µM, first compound 0.0316 µM) 31.4%; (second compound 3.16 µM, first compound 0.0999 µM) 25.1%; (second compound 3.16 µM, first compound 0.316 µM) 24.9%. The viability, T/C is, setting by setting: (second compound 10 µM, first compound 0.000999 µM) 7.06%; (second compound 10 µM, first compound 0.00316 µM) 7.39%; (second compound 10 µM, first compound 0.00999 µM) 6.25%; (second compound 10 µM, first compound 0.0316 µM) 5.78%; (second compound 10 µM, first compound 0.0999 µM) 5.88%; (second compound 10 µM, first compound 0.316 µM) 4.9%.

For `CC[C@@]1(O)C(=O)OCc2c1cc1n(c2=O)Cc2cc3c(CN(C)C)c(O)ccc3nc2-1`, the viability, T/C by setting is: (compound 0.000999 µM) 85.3%; (compound 0.00316 µM) 80.8%; (compound 0.00999 µM) 82.9%; (compound 0.0316 µM) 40.3%; (compound 0.0999 µM) 19.1%; (compound 0.316 µM) 22%. For the same compound, where the note is “curve of compound”, the IC50 was determined as 24.3 nM.

As for `O=C(NO)c1cnc(N2CCN(S(=O)(=O)c3ccc4ccccc4c3)CC2)nc1`, the viability, T/C by setting is: (compound 0.0316 µM) 37.6% and 34.2% and 52.9%; (compound 0.1 µM) 16.6% and 16.8% and 20.5%; (compound 0.316 µM) 7.21% and 7.67% and 7.55%; (compound 1 µM) 5.31% and 5.87% and 4.07%; (compound 3.16 µM) 0.18% and 0.1% and 0.17%; (compound 10 µM) 0.11% (2×) and 0.08%. The IC50 (curve of compound) was < 31.6 nM and 34.8 nM.

The viability, T/C is the ratio of treated to control. Usually IC50 stands for the point on the concentration scale where inhibition reaches its midpoint.
